Values quoted from earlier work as cited in patent US11813301B2, “Topical composition with active compounds from Cannabis sativa and Calendula officinalis for reduction of skin lesions” (UAB Satimed, priority 2016, dated 2023).

Tested on: keratinocyte proliferation
Conditions: cannabinoid receptor-independent manner

| SMILES | inhibition of keratinocyte proliferation |
| --- | --- |
| C=C(C)[C@@H]1CCC(C)=C[C@H]1c1c(O)cc(CCCCC)cc1O [CBD, Cannabidiol] | low micromolar range |
| CCCCCc1cc(O)c2c(c1)OC(C)(C)c1ccc(C)cc1-2 [CBN, Cannabinol] | low micromolar range |
| CCCCCc1cc(O)c2c(c1)OC(C)(C)[C@@H]1CCC(C)=C[C@@H]21 [Preparation D9-THC, Δ9-tetrahydrocannabinol] | low micromolar range |
